Legend:
Test in all cases: relative viability (nuclei count vs DMSO), 5 days (fraction); higher = more cells survive
[1] = compound: COc1cc(-c2nn([C@H]3CC[C@H](N4CCN(C(C)=O)CC4)CC3)c3ncnc(N)c23)ccc1NC(=O)c1cc2ccccc2n1C + Nc1nc2[nH]cc(CCc3ccc(C(=O)N[C@@H](CCC(=O)O)C(=O)O)cc3)c2c(=O)[nH]1 [Pemetrexed] (partner 0.2 µM)
In short: (§1)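 Five library-drug doses in √10 steps were combined with a fixed anchor-drug dose, or a single drug was given alone, by pin tool to lung cancer cell lines in 1536-well plates the day after seeding. Nuclei were stained and counted after 5 days. Relative viability is the nuclei count in treated wells over that in vehicle wells, taken as the median of duplicate plates.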

[2] = compound: COc1cc(-c2nn([C@H]3CC[C@H](N4CCN(C(C)=O)CC4)CC3)c3ncnc(N)c23)ccc1NC(=O)c1cc2ccccc2n1C + CC(C)C[C@H](NC(=O)[C@H](Cc1ccccc1)NC(=O)c1cnccn1)B(O)O [Bortezomib] (partner 0.002 µM)
In short: as §1

[3] = compound: CO[C@@H]1[C@H](N(C)C(=O)c2ccccc2)C[C@H]2O[C@]1(C)n1c3ccccc3c3c4c(c5c6ccccc6n2c5c31)C(=O)NC4 [Midostaurin] + CCNC(=O)c1noc(-c2cc(C(C)C)c(O)cc2O)c1-c1ccc(CN2CCOCC2)cc1 [Luminespib] (partner 0.01 µM)
In short: as §1

[4] = compound: CO[C@@H]1[C@H](N(C)C(=O)c2ccccc2)C[C@H]2O[C@]1(C)n1c3ccccc3c3c4c(c5c6ccccc6n2c5c31)C(=O)NC4 [Midostaurin] + C[C@@H](Oc1cc(-c2cnn(C3CCNCC3)c2)cnc1N)c1c(Cl)ccc(F)c1Cl [Crizotinib] (partner 1 µM)
In short: as §1

[5] = compound: CO[C@@H]1[C@H](N(C)C(=O)c2ccccc2)C[C@H]2O[C@]1(C)n1c3ccccc3c3c4c(c5c6ccccc6n2c5c31)C(=O)NC4 [Midostaurin] + CC(=O)Nc1cccc(-n2c(=O)n(C3CC3)c(=O)c3c(Nc4ccc(I)cc4F)n(C)c(=O)c(C)c32)c1 [Trametinib] (partner 0.02 µM)
In short: as §1

UMC-11
relative viability ([1]; first compound 0.0128 µM): 0.694
relative viability ([1]; first compound 0.04048 µM): 0.865
relative viability ([1]; first compound 0.128 µM): 0.809
relative viability ([1]; first compound 1.28 µM): 0.576
relative viability ([2]; first compound 0.0128 µM): 0.728
relative viability ([2]; first compound 0.04048 µM): 0.687
relative viability ([2]; first compound 0.128 µM): 0.668
relative viability ([2]; first compound 1.28 µM): 0.655
relative viability ([3]; first compound 0.01 µM): 1.02
relative viability ([3]; first compound 0.03162 µM): 0.849
relative viability ([3]; first compound 0.1 µM): 0.932
relative viability ([3]; first compound 0.3162 µM): 0.463
relative viability ([4]; first compound 0.01 µM): 0.553
relative viability ([4]; first compound 0.03162 µM): 0.53
relative viability ([4]; first compound 0.1 µM): 0.447
relative viability ([4]; first compound 0.3162 µM): 0.179
relative viability ([5]; first compound 0.01 µM): 0.698
relative viability ([5]; first compound 0.03162 µM): 0.656
relative viability ([5]; first compound 0.1 µM): 0.691
relative viability ([5]; first compound 0.3162 µM): 0.562

— the supplement of paper PMC10307832
